Results from PubChem BioAssay (NCI).
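The concentration for 50% growth inhibition is given as GI50. TGI denotes the concentration required for complete inhibition of growth.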

Key:
Experiment in all cases: DTP human tumour cell line panel, 384-well format
786-0 renal = system: 786-0 renal
A498 renal = system: A498 renal
A549 NSCLC = system: A549 NSCLC
ACHN renal = system: ACHN renal
BT-549 breast = system: BT-549 breast
CAKI-1 renal = system: CAKI-1 renal
CCRF-CEM leukemia = system: CCRF-CEM leukemia
COLO 205 colon = system: COLO 205 colon
DU-145 prostate = system: DU-145 prostate
EKVX NSCLC = system: EKVX NSCLC
HCC-2998 colon = system: HCC-2998 colon
HCT-15 colon = system: HCT-15 colon
HL-60(TB) leukemia = system: HL-60(TB) leukemia
HOP-62 NSCLC = system: HOP-62 NSCLC
HOP-92 NSCLC = system: HOP-92 NSCLC
HS 578T breast = system: HS 578T breast
HT29 colon = system: HT29 colon
IGROV1 ovarian = system: IGROV1 ovarian
KM12 colon = system: KM12 colon
M14 melanoma = system: M14 melanoma
MALME-3M melanoma = system: MALME-3M melanoma
MCF7 breast = system: MCF7 breast
MDA-MB-231 breast = system: MDA-MB-231 breast
MDA-MB-435 melanoma = system: MDA-MB-435 melanoma
MDA-MB-468 breast = system: MDA-MB-468 breast
MOLT-4 leukemia = system: MOLT-4 leukemia
NCI-H226 lung = system: NCI-H226 lung
NCI-H23 lung = system: NCI-H23 lung
NCI-H322M lung = system: NCI-H322M lung
NCI-H460 NSCLC = system: NCI-H460 NSCLC
NCI-H522 lung = system: NCI-H522 lung
NCI/ADR-RES ovarian = system: NCI/ADR-RES ovarian
OVCAR-3 ovarian = system: OVCAR-3 ovarian
OVCAR-4 ovarian = system: OVCAR-4 ovarian
OVCAR-5 ovarian = system: OVCAR-5 ovarian
OVCAR-8 ovarian = system: OVCAR-8 ovarian
PC-3 prostate = system: PC-3 prostate
RPMI-8226 leukemia = system: RPMI-8226 leukemia
RXF 393 renal = system: RXF 393 renal
SF-268 CNS = system: SF-268 CNS
SF-295 CNS = system: SF-295 CNS
SF-539 CNS = system: SF-539 CNS
SK-MEL-2 melanoma = system: SK-MEL-2 melanoma
SK-MEL-28 melanoma = system: SK-MEL-28 melanoma
SK-MEL-5 melanoma = system: SK-MEL-5 melanoma
SK-OV-3 ovarian = system: SK-OV-3 ovarian
SN12C renal = system: SN12C renal
SNB-19 CNS = system: SNB-19 CNS
SNB-75 CNS = system: SNB-75 CNS
SR leukemia = system: SR leukemia
SW-620 colon = system: SW-620 colon
T-47D breast = system: T-47D breast
TK-10 renal = system: TK-10 renal
U251 glioblastoma = system: U251 glioblastoma
UACC-257 melanoma = system: UACC-257 melanoma
UACC-62 melanoma = system: UACC-62 melanoma
LOX IMVI melanoma = system: LOX IMVI melanoma
UO-31 renal = system: UO-31 renal

`CC(=O)c1cc2c(o1)C(=O)c1ccccc1C2=O` showed a GI50 (786-0 renal) of 707 nM, a TGI (786-0 renal) of 2040 nM and a GI50 (A498 renal) of 178 nM. The TGI (A498 renal) was 318 nM, the GI50 (A549 NSCLC) was 176 nM and the TGI (A549 NSCLC) was 317 nM. For the same molecule, the GI50 (ACHN renal) was 1310 nM, the TGI (ACHN renal) was 2590 nM and the GI50 (BT-549 breast) was 141 nM. It also gave a TGI (BT-549 breast) of 272 nM, a GI50 (CAKI-1 renal) of 1030 nM and a TGI (CAKI-1 renal) of 2210 nM. It also gave a GI50 (CCRF-CEM leukemia) of 357 nM, a TGI (CCRF-CEM leukemia) of 1090 nM and a GI50 (COLO 205 colon) of 190 nM. For the same molecule, the TGI (COLO 205 colon) was 336 nM, the GI50 (DU-145 prostate) was 137 nM and the TGI (DU-145 prostate) was 268 nM. It also gave a GI50 (EKVX NSCLC) of 363 nM, a TGI (EKVX NSCLC) of 1470 nM and a GI50 (HCC-2998 colon) of 160 nM. The TGI (HCC-2998 colon) was 305 nM, the GI50 (HCT-15 colon) was 157 nM and the TGI (HCT-15 colon) was 294 nM. The GI50 (HL-60(TB) leukemia) was 202 nM, the TGI (HL-60(TB) leukemia) was 347 nM and the GI50 (HOP-62 NSCLC) was 37.5 nM. The TGI (HOP-62 NSCLC) was 133 nM, the GI50 (HOP-92 NSCLC) was 363 nM and the TGI (HOP-92 NSCLC) was 1390 nM. The GI50 (HS 578T breast) was 179 nM, the TGI (HS 578T breast) was 319 nM and the GI50 (HT29 colon) was 175 nM. For the same molecule, the TGI (HT29 colon) was 316 nM, the GI50 (IGROV1 ovarian) was 1230 nM and the TGI (IGROV1 ovarian) was 2490 nM. The GI50 (KM12 colon) was 299 nM, the TGI (KM12 colon) was 1200 nM and the GI50 (M14 melanoma) was 168 nM. It also gave a TGI (M14 melanoma) of 306 nM, a GI50 (MALME-3M melanoma) of 148 nM and a TGI (MALME-3M melanoma) of 280 nM. The GI50 (MCF7 breast) was 165 nM, the TGI (MCF7 breast) was 305 nM and the GI50 (MDA-MB-231 breast) was 293 nM. The TGI (MDA-MB-231 breast) was 1200 nM, the GI50 (MDA-MB-435 melanoma) was 156 nM and the TGI (MDA-MB-435 melanoma) was 291 nM. It also gave a GI50 (MDA-MB-468 breast) of 220 nM, a TGI (MDA-MB-468 breast) of 565 nM and a GI50 (MOLT-4 leukemia) of 215 nM. It also gave a TGI (MOLT-4 leukemia) of 437 nM, a GI50 (NCI-H226 lung) of 166 nM and a TGI (NCI-H226 lung) of 303 nM. It also gave a GI50 (NCI-H23 lung) of 33.2 nM, a TGI (NCI-H23 lung) of 138 nM and a GI50 (NCI-H322M lung) of 177 nM. For the same molecule, the TGI (NCI-H322M lung) was 317 nM, the GI50 (NCI-H460 NSCLC) was 172 nM and the TGI (NCI-H460 NSCLC) was 314 nM. For the same molecule, the GI50 (NCI-H522 lung) was 153 nM, the TGI (NCI-H522 lung) was 289 nM and the GI50 (NCI/ADR-RES ovarian) was 215 nM. The TGI (NCI/ADR-RES ovarian) was 562 nM, the GI50 (OVCAR-3 ovarian) was 165 nM and the TGI (OVCAR-3 ovarian) was 315 nM. The GI50 (OVCAR-4 ovarian) was 156 nM, the TGI (OVCAR-4 ovarian) was 295 nM and the GI50 (OVCAR-5 ovarian) was 149 nM. It also gave a TGI (OVCAR-5 ovarian) of 283 nM, a GI50 (OVCAR-8 ovarian) of 236 nM and a TGI (OVCAR-8 ovarian) of 669 nM. The GI50 (PC-3 prostate) was 259 nM, the TGI (PC-3 prostate) was 1140 nM and the GI50 (RPMI-8226 leukemia) was 132 nM. For the same molecule, the TGI (RPMI-8226 leukemia) was 374 nM, the GI50 (RXF 393 renal) was 163 nM and the TGI (RXF 393 renal) was 326 nM. The GI50 (SF-268 CNS) was 234 nM, the TGI (SF-268 CNS) was 818 nM and the GI50 (SF-295 CNS) was 126 nM. It also gave a TGI (SF-295 CNS) of 255 nM, a GI50 (SF-539 CNS) of 159 nM and a TGI (SF-539 CNS) of 296 nM. The GI50 (SK-MEL-2 melanoma) was 269 nM, the TGI (SK-MEL-2 melanoma) was 434 nM and the GI50 (SK-MEL-28 melanoma) was 186 nM. It also gave a TGI (SK-MEL-28 melanoma) of 336 nM, a GI50 (SK-MEL-5 melanoma) of 55.8 nM and a TGI (SK-MEL-5 melanoma) of 178 nM. For the same molecule, the GI50 (SK-OV-3 ovarian) was 1030 nM, the TGI (SK-OV-3 ovarian) was 2210 nM and the GI50 (SN12C renal) was 165 nM. It also gave a TGI (SN12C renal) of 309 nM, a GI50 (SNB-19 CNS) of 175 nM and a TGI (SNB-19 CNS) of 322 nM. For the same molecule, the GI50 (SNB-75 CNS) was 34.1 nM, the TGI (SNB-75 CNS) was 101 nM and the GI50 (SR leukemia) was 156 nM. It also gave a TGI (SR leukemia) of 295 nM, a GI50 (SW-620 colon) of 175 nM and a TGI (SW-620 colon) of 367 nM. The GI50 (T-47D breast) was 198 nM, the TGI (T-47D breast) was 439 nM and the GI50 (TK-10 renal) was 1100 nM. For the same molecule, the TGI (TK-10 renal) was 2290 nM, the GI50 (U251 glioblastoma) was 194 nM and the TGI (U251 glioblastoma) was 503 nM. The GI50 (UACC-257 melanoma) was 126 nM, the TGI (UACC-257 melanoma) was 254 nM and the GI50 (UACC-62 melanoma) was 168 nM. For the same molecule, the TGI (UACC-62 melanoma) was 306 nM.
In the case of `O=C(c1c(F)ccc(NS(=O)(=O)N2CC[C@@H](F)C2)c1F)c1c[nH]c2ncc(-c3cnc(C4CC4)nc3)cc12`, the GI50 (786-0 renal) is reported as 5620 nM, the TGI (786-0 renal) is reported as 29700 nM and the GI50 (A498 renal) is reported as 6380 nM. For the same molecule, the TGI (A498 renal) was 24300 nM, the GI50 (ACHN renal) was 4770 nM and the TGI (ACHN renal) was 20700 nM. The GI50 (CAKI-1 renal) was 3090 nM, the TGI (CAKI-1 renal) was 9220 nM and the GI50 (COLO 205 colon) was less than 10 nM. For the same molecule, the TGI (COLO 205 colon) was 21 nM, the GI50 (DU-145 prostate) was 4580 nM and the TGI (DU-145 prostate) was 17700 nM. The GI50 (EKVX NSCLC) was 8140 nM, the TGI (EKVX NSCLC) was 21600 nM and the GI50 (HCT-15 colon) was 4800 nM. The TGI (HCT-15 colon) was 20900 nM, the GI50 (HOP-62 NSCLC) was 5200 nM and the TGI (HOP-62 NSCLC) was 20600 nM. For the same molecule, the GI50 (HOP-92 NSCLC) was 4130 nM, the TGI (HOP-92 NSCLC) was 25100 nM and the GI50 (HT29 colon) was 15 nM. For the same molecule, the TGI (HT29 colon) was 14500 nM, the GI50 (IGROV1 ovarian) was 3080 nM and the TGI (IGROV1 ovarian) was 13500 nM. For the same molecule, the GI50 (KM12 colon) was 6170 nM, the TGI (KM12 colon) was 18800 nM and the GI50 (LOX IMVI melanoma) was 30.1 nM. The TGI (LOX IMVI melanoma) was 4130 nM, the GI50 (M14 melanoma) was less than 10 nM and the TGI (M14 melanoma) was 14.9 nM. It also gave a GI50 (MALME-3M melanoma) of less than 10 nM, a GI50 (NCI-H226 lung) of 5360 nM and a TGI (NCI-H226 lung) of 18000 nM. The GI50 (NCI-H23 lung) was 4000 nM, the TGI (NCI-H23 lung) was 15300 nM and the GI50 (NCI/ADR-RES ovarian) was 19000 nM. For the same molecule, the TGI (NCI/ADR-RES ovarian) was 41300 nM, the GI50 (OVCAR-4 ovarian) was 11200 nM and the TGI (OVCAR-4 ovarian) was 27600 nM. The GI50 (OVCAR-5 ovarian) was 8290 nM, the TGI (OVCAR-5 ovarian) was 27700 nM and the GI50 (SF-295 CNS) was 5270 nM. For the same molecule, the TGI (SF-295 CNS) was 19800 nM, the GI50 (SK-MEL-28 melanoma) was less than 10 nM and the TGI (SK-MEL-28 melanoma) was 12.7 nM. The GI50 (SN12C renal) was 7660 nM, the TGI (SN12C renal) was greater than 100000 nM and the GI50 (SNB-75 CNS) was 5650 nM. The TGI (SNB-75 CNS) was 17900 nM, the GI50 (TK-10 renal) was 11800 nM and the TGI (TK-10 renal) was 35400 nM. The GI50 (UACC-257 melanoma) was less than 10 nM, the TGI (UACC-257 melanoma) was 24.6 nM and the GI50 (UACC-62 melanoma) was less than 10 nM. It also gave a TGI (UACC-62 melanoma) of 11.6 nM, a GI50 (UO-31 renal) of 8460 nM and a TGI (UO-31 renal) of 23500 nM.
